In ChEMBL document CHEMBL1154226, “Synthesis and evaluation of inhibitors of cytochrome P450 3A (CYP3A) for pharmacokinetic enhancement of drugs” (Bioorg Med Chem Lett, 2009):

Tests used:
[1] = organism: Canis familiaris; details: dog, in vivo, po, 5 mg/kg
[2] = in vivo; details: Beagle, dog, po, 5 mg/kg
[3] = tested on: Liver microsomes; test: Intrinsic clearance in human liver microsomes; assay type: ADME, Microsome
[4] = target: Cytochrome P450 3A4 (Homo sapiens, UniProt P08684); test: Inhibition of human recombinant CYP3A4-mediated oxidation of 7-benzyloxyquinoline
Sequence of Cytochrome P450 3A4 (P08684 whole entry): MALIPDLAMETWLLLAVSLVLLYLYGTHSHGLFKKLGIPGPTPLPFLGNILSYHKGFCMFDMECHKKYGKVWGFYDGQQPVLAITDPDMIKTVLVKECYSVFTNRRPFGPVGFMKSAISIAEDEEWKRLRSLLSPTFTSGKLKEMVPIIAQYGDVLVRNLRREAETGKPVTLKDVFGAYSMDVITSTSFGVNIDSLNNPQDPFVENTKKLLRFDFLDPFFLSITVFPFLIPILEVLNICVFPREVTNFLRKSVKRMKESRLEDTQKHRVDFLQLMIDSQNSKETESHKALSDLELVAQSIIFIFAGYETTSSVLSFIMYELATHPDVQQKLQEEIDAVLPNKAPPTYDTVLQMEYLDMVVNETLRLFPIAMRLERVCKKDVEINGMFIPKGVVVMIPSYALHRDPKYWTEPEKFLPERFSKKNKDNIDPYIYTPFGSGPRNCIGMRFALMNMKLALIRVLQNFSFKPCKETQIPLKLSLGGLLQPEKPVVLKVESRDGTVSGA

| SMILES | AUC [1] [µg/mL] | Cmax [2] [ng/mL] | IC50 [3] [µM] | IC50 [4] [µM] |
| --- | --- | --- | --- | --- |
| O=C(NC(Cc1ccccc1)CN(CC(Cc1ccccc1)NC(=O)OCc1cncs1)CC(Cc1ccccc1)NC(=O)OCc1cncs1)OCc1cncs1 (stereo not given) | 0.06 | 30 | 0.054 |  |
| CCN(C[C@H](Cc1ccccc1)NC(=O)OCc1cnc[nH]1)C[C@H](Cc1ccccc1)NC(=O)OCc1cnc[nH]1 |  |  |  | 0.348 |
| CCN(C[C@H](CC(C)C)NC(=O)OCc1cncs1)C[C@H](CC(C)C)NC(=O)OCc1cncs1 |  |  |  | 0.136 |
| CCN(C[C@H](Cc1ccccc1)NC(=O)OCc1cccs1)C[C@H](Cc1ccccc1)NC(=O)OCc1cccs1 |  |  |  | 0.741 |
| CCN(C[C@H](Cc1ccccc1)NC(=O)OCc1cncs1)C[C@H](Cc1ccccc1)NC(=O)OCc1cncs1 | 1.38 | 610 |  |  |
| CCN(CC(CC(=O)OC)NC(=O)OCc1cncs1)CC(CC(=O)OC)NC(=O)OCc1cncs1 (stereo not given) |  |  |  | 0.088 |
| CCN(CC(CC1CCCCC1)NC(=O)OCc1cncs1)CC(CC1CCCCC1)NC(=O)OCc1cncs1 (stereo not given) |  |  |  | 0.066 |
| CCN(C[C@H](Cc1ccccc1)NC(=O)OCc1cnco1)C[C@H](Cc1ccccc1)NC(=O)OCc1cnco1 |  |  |  | 0.274 |
| CCN(CCNC(=O)OCc1cncs1)CCNC(=O)OCc1cncs1 |  |  |  | > 3 |
| CC(C)c1nc(CN(C)C(=O)N[C@H](C(=O)N[C@@H](Cc2ccccc2)C[C@H](O)[C@H](Cc2ccccc2)NC(=O)OCc2cncs2)C(C)C)cs1 [RITONAVIR] | 2.19 | 1320 | 0.04 |  |
